Like-named read-outs stand apart in the source and are kept apart here.
Experiments:
αβγ hENaC [1] = biological target: T1, αβγ hENaC (Homo sapiens, UniProt P37088+P51168+P51170); experiment: Membrane potential assay (FMP dye) on αβγ hENaC-expressing cells; type: cell-based; conditions: 0.03-10 µM; read-out: EC50, depolarization of membrane potential in hENaC expressing cells
T1 construct: GFP; host or cells: HEK293T
T1 sequence (P37088 1-669): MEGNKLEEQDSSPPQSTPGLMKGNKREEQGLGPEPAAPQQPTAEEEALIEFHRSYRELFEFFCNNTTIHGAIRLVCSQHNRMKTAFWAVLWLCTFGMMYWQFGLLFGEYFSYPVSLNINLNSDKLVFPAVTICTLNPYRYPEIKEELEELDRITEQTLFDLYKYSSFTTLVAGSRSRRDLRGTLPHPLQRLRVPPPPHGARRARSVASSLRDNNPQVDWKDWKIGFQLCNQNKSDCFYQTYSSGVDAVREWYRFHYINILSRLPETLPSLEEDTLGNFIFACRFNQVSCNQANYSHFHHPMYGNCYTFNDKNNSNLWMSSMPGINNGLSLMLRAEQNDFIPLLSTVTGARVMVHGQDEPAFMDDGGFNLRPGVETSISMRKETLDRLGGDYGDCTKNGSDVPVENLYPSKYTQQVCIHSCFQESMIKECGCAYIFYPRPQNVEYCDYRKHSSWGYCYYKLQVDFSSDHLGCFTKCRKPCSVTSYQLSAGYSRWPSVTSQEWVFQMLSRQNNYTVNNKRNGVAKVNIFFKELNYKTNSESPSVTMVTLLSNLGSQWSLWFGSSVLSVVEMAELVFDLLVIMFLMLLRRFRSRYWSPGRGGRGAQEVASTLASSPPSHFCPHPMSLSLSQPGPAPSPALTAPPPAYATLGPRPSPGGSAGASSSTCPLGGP
T1 sequence (P51168 1-640): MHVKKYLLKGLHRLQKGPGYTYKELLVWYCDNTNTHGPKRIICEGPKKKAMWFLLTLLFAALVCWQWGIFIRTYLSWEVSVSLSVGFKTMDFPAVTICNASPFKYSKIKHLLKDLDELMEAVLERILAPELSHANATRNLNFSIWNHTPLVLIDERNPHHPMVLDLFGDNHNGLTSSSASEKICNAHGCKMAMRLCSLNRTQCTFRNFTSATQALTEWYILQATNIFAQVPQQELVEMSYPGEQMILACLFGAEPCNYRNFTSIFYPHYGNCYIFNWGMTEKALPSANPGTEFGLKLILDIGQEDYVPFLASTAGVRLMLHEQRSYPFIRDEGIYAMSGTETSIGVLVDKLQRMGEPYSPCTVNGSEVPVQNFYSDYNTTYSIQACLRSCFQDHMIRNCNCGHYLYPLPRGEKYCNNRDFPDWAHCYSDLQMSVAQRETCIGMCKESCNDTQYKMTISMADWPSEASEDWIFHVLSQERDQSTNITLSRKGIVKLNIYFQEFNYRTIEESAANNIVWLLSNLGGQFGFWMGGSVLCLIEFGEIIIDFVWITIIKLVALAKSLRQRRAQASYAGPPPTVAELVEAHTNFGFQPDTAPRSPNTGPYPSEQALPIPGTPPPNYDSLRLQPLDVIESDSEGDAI
T1 sequence (P51170 1-649): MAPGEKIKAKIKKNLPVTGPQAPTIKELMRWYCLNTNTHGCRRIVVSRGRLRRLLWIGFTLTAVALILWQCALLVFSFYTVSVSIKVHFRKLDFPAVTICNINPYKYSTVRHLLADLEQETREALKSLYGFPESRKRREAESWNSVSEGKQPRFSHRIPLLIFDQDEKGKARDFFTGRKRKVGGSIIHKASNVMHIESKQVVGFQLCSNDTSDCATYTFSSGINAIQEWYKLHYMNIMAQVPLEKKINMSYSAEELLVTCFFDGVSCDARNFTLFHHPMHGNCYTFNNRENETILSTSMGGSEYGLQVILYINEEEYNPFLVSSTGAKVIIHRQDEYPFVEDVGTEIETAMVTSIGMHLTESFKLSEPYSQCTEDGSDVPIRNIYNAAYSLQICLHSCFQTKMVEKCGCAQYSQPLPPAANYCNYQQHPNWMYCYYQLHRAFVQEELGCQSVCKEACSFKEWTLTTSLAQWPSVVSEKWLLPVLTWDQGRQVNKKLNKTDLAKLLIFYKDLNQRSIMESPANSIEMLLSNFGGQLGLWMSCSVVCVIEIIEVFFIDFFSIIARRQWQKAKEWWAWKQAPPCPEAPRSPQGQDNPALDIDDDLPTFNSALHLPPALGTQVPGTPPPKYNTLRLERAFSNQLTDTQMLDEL
Procedure: The α, β, and γ hENaC subunits were cloned from OriGene (Rockville, MD; GenBank accession number […] for SCNN1A, NM_000336 for SCNN1B and NM_001039 for SCNN1G). α, GFP-tagged β, and γ hENaC were cloned into a CMV promoter-based vector and expressed constitutively. The HEK293T cells were seeded onto a 35 mm dish and transfected with α, β, and γ hENaC expression plasmid using Lipofectamine 2000 (Invitrogen). Then, transfected cells were seeded onto 96-well black-wall plate for 18–26 h prior to their use in an experiment.
hENaC-expressing cells were characterized using FLIPER Membrane Potential (FMP) Assay Kit (Molecular Devices Corporation, Sunnyvale, CA, USA). In this assay, changes in the membrane potential were quantified via fluorescence change caused by FMP dye. The hENaC-expressing cells were washed with assay buffer (containing: 130 mM NaCl, 10 mM glucose, 5 mM KCl, 2 mM CaCl2, 1.2 mM MgCl2, and 10 mM HEPES, pH adjusted to 7.4 with NaOH) and subsequently, FMP blue-dye in assay buffer was loaded into the cells at room temperature for 30 min. After dye treatment, S3969 (0.03−10 µM), an ENaC agonist, S3969+Bz (ENaC antagonist, 0.01 µM), or NGCC (0.01−10 µM) was treated to hENaC-expressing cells. The plate was assayed in a FlexStation III plate reader (Molecular devices Corporation) by excitation at 530 nm and measuring the emission at 560 nm.

αβγ hENaC [2] = biological target: T1, αβγ hENaC; design: method as in PMID 18326490; conditions: read-out: EC50 of S3969 obtained by patch-clamp; cited from earlier work
human δβγ ENaC = test system: human δβγ ENaC; design: method as in PMID 18326490; conditions: cited from earlier work
human αβγ ENaC = test system: human αβγ ENaC; design: method as in PMID 18326490; conditions: cited from earlier work
[3] = test system: lingual surface potential to salt stimuli; design: method as in PMID 12736236, PMID 16809639; conditions: amiloride 100 µM, humans, gustometer; cited from earlier work
[4] = test system: chorda tympani (CT) taste nerve response to NaCl; design: method as in PMID 12736236, PMID 16809639; conditions: cited from earlier work

Row | EC50 (αβγ hENaC [1]) [nM] | Structure (SMILES) | EC50 (αβγ hENaC [2]) [nM] | IC50 (human δβγ ENaC) [nM] | IC50 (human αβγ ENaC) [nM] | reduction of lingual surface potential to salt stimuli [3] | inhibition of chorda tympani (CT) taste nerve response to NaCl [4]
1 | 1260 ± 290 | Cc1cccc2[nH]cc(SC(CC(C)C)C(=O)NCCO)c12 (stereo not drawn) [S3969] | 1200 ± 100 | – | – | – | –
2 | – | N=C(N)NC(=O)c1nc(Cl)c(N)nc1N [amiloride] | – | ~2700 | ~110 | 5–40% | about 70%
